Data published in patent US7687651B2, “Method for the preparation of trans-or cis-diammoniumdichlorodihydroxoplatinum(IV) and the use thereof in the production of pharmaceutical active substances” (priority 2003, dated 2010).

Legend:
Assay type in all cases: cell-based, human
[1] = tested on: Du145 Prostate; assay: Growth inhibition test on Du145 cells; details: Du145 Prostate
Method: (§1) The effect of cis-oxoplatin Ca and cis-oxoplatin was compared on 10 cell lines (Table 4).
(§2) (IC50 values specified in μg/ml; the test was performed as a formazan test).

[2] = tested on: EW-7 (EFT); assay: Effect on cell lines of typical tumors in children, EW-7; details: Table 3
Excerpt: (§3) What is seen primarily in children are leukemias, neuroblastomas and Ewing's sarcoma/peripheral neuroectodermal tumors (group of the Ewing family of tumors=EFT). The investigated tumor cell lines include three EFTs (EW-7, SIM and KAL), as well as two neuroblastoma cell lines (NB: LAN1 and LAN5; Los Angeles neuroblastoma=LAN) (see Table 3).

[3] = tested on: Colo205 Colon carcinoma; assay: Growth inhibition test on Colo205 cells
Method: as §1, §2

[4] = tested on: JVSO Melanoma; assay: Growth inhibition test on JVSO cells; details: Table 1
Method: (§4) Growth inhibition tests on various human cell lines show the different activities of cisplatin, cis-oxoplatin and oxaliplatin. […] The following Table illustrates the results produced with cisplatin, oxoplatin, carboplatin and oxaliplatin (the values specified are IC50 values in μg/ml, i.e., the concentration where 50% of the cells survive, nd=not determined; res=resistant=non-sensitive or IC50 value cannot be determined at a concentration of up to 40 μg/ml; IC=inhibition concentration).

[5] = tested on: BT20 Breast; assay: Formazan test on BT20 cells; details: Table 4
Method: as §1, §2

[6] = tested on: M607 Melanoma; assay: Growth inhibition test on M607 cells; details: Table 1
Method: as §4

[7] = tested on: MiaPaCa2 Pancreatic cancer; assay: Growth inhibition test on MiaPaCa2 cells; details: Table 1
Method: as §4

[8] = tested on: HOS Osteosarcoma; assay: Growth inhibition test on HOS cells; details: Table 1
Method: as §4

[9] = tested on: C320DM Colon carcinoma; assay: Growth inhibition test on C320DM cells; details: Table 1
Method: as §4

[10] = tested on: PC3 Prostate; assay: Growth inhibition test on PC3 cells; details: for % Survival: PC3 cells; for IC50: PC3 Prostate
Method: as §4

[11] = tested on: 10 cell lines (Table 4); assay: Formazan test, IC50 mean value for all cell lines of Table 4; details: mean over the 10 cell lines of Table 4
Method: as §1, §2

[12] = tested on: CRO2B Carcinoid; assay: Growth inhibition test on CRO2B cells; details: CRO2B Carcinoid
Method: as §1, §2

[13] = tested on: SK-OV3 Ovarian cancer; assay: Growth inhibition test on SK-OV3 cells; details: Table 2
Method: as §4

[14] = tested on: M518 Melanoma; assay: Growth inhibition test on M518 cells; details: Table 1
Method: as §4

[15] = tested on: CC1227 Colon carcinoma; assay: Growth inhibition test on CC1227 cells; details: Table 1
Method: as §4

[16] = tested on: HT29 Colon carcinoma; assay: Growth inhibition test on HT29 cells
Method: as §1, §2

[17] = tested on: SIM Sarcoma; assay: Growth inhibition test on SIM cells
Method: as §4, §3

[18] = tested on: T47D Breast cancer; assay: Growth inhibition test on T47D cells
Method: as §1, §2

[19] = tested on: MCF-7 Breast cancer; assay: Growth inhibition test on MCF-7 cells; details: Table 1
Method: as §4

[20] = tested on: LAN1 (NB); assay: Effect on cell lines of typical tumors in children, LAN1; details: Table 3
Excerpt: as §3

[21] = tested on: A498 Renal cells; assay: Growth inhibition test on A498 cells; details: Table 1
Method: as §4

[22] = tested on: BxPC3 Pancreatic cancer; assay: Growth inhibition test on BxPC3 cells
Method: as §1, §2

[23] = tested on: U 373 MG Astrocytoma; assay: Growth inhibition test on U 373 MG cells; details: Table 2
Method: as §4

[24] = tested on: CaCo-2 Colon; assay: Growth inhibition test on CaCo-2 cells; details: CaCo-2 Colon
Method: as §1, §2

[25] = tested on: Panc1 Pancreatic cancer; assay: Growth inhibition test on Panc1 cells; details: Table 1
Method: as §4

[26] = tested on: Me128 Melanoma; assay: Growth inhibition test on Me128 cells; details: Table 1
Method: as §4

[27] = tested on: LAN5 (NB); assay: Effect on cell lines of typical tumors in children, LAN5; details: Table 3
Excerpt: as §3

[28] = tested on: SK-OV4 Ovarian cancer; assay: Growth inhibition test on SK-OV4 cells; details: Table 2; SK-OV4 Ovarian cancer
Method: as §4

[29] = tested on: MDA-MB-435 Breast; assay: Formazan test on MDA-MB-435 cells; details: Table 4
Method: as §1, §2

[30] = tested on: SaOS Osteosarcoma; assay: Growth inhibition test on SaOS cells; details: Table 1
Method: as §4

[31] = tested on: HCT-15 Colon carcinoma; assay: Growth inhibition test on HCT-15 cells; details: Table 1
Method: as §4

[32] = tested on: HCT8 Colon carcinoma; assay: Growth inhibition test on HCT8 cells; details: Table 1
Method: as §4

[33] = tested on: HT29, SW480, SK-OV4, PC3, SIM, CaCO-2, DU145 and CRO2B cells; assay: Growth inhibition, IC50 over eight cell lines of Table 2; details: CaCO-2, DU145, CRO2B
Method: as §4
The activities differ according to the cell line.

[34] = tested on: SW480 Colon; assay: Growth inhibition test on SW480 cells; details: SW480 Colon
Method: as §1, §2

SMILES: N.N.[Cl-].[Cl-].[OH-].[OH-].[Pt+4] [cis-Oxoplatin, cis-diammoniumdichlorodihydroxoplatinum(IV)]
- IC50 ([1]; Table 2): 19.0 µg/mL
- IC50 ([1]; Table 4, formazan test): 19.0 µg/mL
- IC50 [2]: 1.25 µg/mL
- IC50 ([3]; Table 1, Colo205 Colon carcinoma): res (res=resistant=non-sensitive or IC50 value cannot be determined at a concentration of up to 40 μg/ml)
- IC50 ([3]; Table 4, Colo205 Colon, formazan test): 29.0 µg/mL
- IC50 [4]: 10 µg/mL
- IC50 [5]: 3.75 µg/mL
- IC50 [6]: 5 µg/mL
- IC50 [7]: 5 µg/mL
- IC50 [8]: 2.5 µg/mL
- IC50 [9]: 2.5 µg/mL
- % Survival ([10]; Conc. 5 μg/ml): 105.2 ± 10.8%
- % Survival ([10]; Conc. 10 μg/ml): 87.4 ± 11.8%
- % Survival ([10]; Conc. 20 μg/ml): 56.7 ± 6.3%
- % Survival ([10]; Conc. 40 μg/ml): 15.8 ± 2.7%
- IC50 ([10]; Table 1): 7.5 µg/mL
- IC50 ([10]; Table 2): 7.5 µg/mL
- IC50 (±SEM) mean value for all cell lines [11]: 12.3 ± 3.2 µg/mL
- IC50 ([12]; Table 2): 3.0 µg/mL
- IC50 ([12]; Table 4, formazan test): 3.0 µg/mL
- IC50 [13]: 15 µg/mL
- IC50 [14]: res (res=resistant=non-sensitive or IC50 value cannot be determined at a concentration of up to 40 μg/ml)
- IC50 [15]: 10 µg/mL
- IC50 ([16]; Table 1, HT29 Colon carcinoma): 20 µg/mL
- IC50 ([16]; Table 2, HT29 Colon): 13.5 µg/mL
- IC50 ([16]; Table 4, HT29 Colon, formazan test): 13.5 µg/mL
- IC50 ([17]; Table 2, SIM Sarcoma): 15.2 µg/mL
- IC50 ([17]; Table 3, SIM (EFT)): 14 µg/mL
- IC50 ([18]; Table 1, T47D Breast cancer): 2.5 µg/mL
- IC50 ([18]; Table 2, T47D Breast cancer): 3 µg/mL
- IC50 ([18]; Table 4, T47D Breast, formazan test): 2.5 µg/mL
- IC50 [19]: 5.5 µg/mL
- IC50 [20]: 17 µg/mL
- IC50 [21]: 20 µg/mL
- IC50 ([22]; Table 1, BxPC3 Pancreatic cancer): 2.5 µg/mL
- IC50 ([22]; Table 2, BxPC3 Pancreatic carcinoma): 13 µg/mL
- IC50 ([22]; Table 4, BxPC3 Pancreas, formazan test): 26.0 µg/mL
- IC50 [23]: 15 µg/mL
- IC50 ([24]; Table 2): 1.52 µg/mL
- IC50 ([24]; Table 4, formazan test): 1.52 µg/mL
- IC50 [25]: 40 µg/mL
- IC50 [26]: 2.5 µg/mL
- IC50 [27]: 3.5 µg/mL
- IC50 [28]: 16.2 µg/mL
- IC50 [29]: 16.5 µg/mL
- IC50 [30]: 5 µg/mL
- IC50 [31]: 20 µg/mL
- IC50 [32]: 40 µg/mL
- IC50 values of these cells (mean ± spread) [33]: 10.5 ± 6.4 µg/mL
- IC50 ([34]; Table 2): 8.2 µg/mL
- IC50 ([34]; Table 4, formazan test): 8.2 µg/mL
